ChEMBL document CHEMBL4732075, “PROTACs suppression of GSK-3β, a crucial kinase in neurodegenerative diseases” (Eur J Med Chem, 2021)
The source made the active and inactive calls. The rule behind the calls is not given here.

Tests used:
[1] = molecular target: T1, Glycogen synthase kinase-3 beta (Homo sapiens, UniProt P49841); test: Inhibition of N-terminal His6-tagged recombinant human GSK3beta H350L mutant expressed in baculovirus infected Sf21 cells using GSM as substrate incubated for 30 mins in presence of ATP by Kinase-Glo luminescent assay
Target sequence in this assay (P49841 whole entry): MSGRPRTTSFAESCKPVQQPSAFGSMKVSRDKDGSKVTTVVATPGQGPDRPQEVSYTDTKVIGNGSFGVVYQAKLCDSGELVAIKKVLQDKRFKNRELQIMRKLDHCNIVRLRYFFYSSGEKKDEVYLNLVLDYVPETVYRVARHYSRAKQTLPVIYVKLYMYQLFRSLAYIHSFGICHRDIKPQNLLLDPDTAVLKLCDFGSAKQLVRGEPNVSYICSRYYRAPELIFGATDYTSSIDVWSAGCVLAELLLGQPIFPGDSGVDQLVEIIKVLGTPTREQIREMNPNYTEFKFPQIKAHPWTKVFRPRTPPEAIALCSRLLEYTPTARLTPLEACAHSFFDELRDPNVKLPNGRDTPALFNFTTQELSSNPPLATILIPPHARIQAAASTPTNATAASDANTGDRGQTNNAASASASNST

[2] = molecular target: T2, Protein cereblon/Glycogen synthase kinase-3 beta (Rattus norvegicus) (UniProt P18266+Q56AP7); test: Protac activity at CRBN/GSK3beta in rat PC12 cells assessed as GSK3beta degradation by measuring GSK3beta protein level at 10 uM after 10 hrs by Western blotting analysis; type: cell-based; settings: PC-12
T2 sequence (P18266 whole entry, looked up): as the sequence (P49841 whole entry) above, with V240M, T390P, T392A, A400T, T402A counted along it
T2 sequence (Q56AP7 whole entry, looked up): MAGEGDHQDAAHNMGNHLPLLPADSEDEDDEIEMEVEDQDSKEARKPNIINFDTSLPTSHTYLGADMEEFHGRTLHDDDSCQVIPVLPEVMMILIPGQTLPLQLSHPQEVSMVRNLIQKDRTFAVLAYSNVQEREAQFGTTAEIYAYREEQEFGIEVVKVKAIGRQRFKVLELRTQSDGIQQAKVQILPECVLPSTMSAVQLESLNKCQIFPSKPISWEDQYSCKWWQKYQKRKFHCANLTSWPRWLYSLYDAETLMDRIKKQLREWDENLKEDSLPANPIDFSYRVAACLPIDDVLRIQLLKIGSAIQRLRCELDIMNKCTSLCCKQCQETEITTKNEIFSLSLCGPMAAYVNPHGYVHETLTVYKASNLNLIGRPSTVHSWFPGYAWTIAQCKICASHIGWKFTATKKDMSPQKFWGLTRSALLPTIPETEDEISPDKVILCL

[3] = molecular target: T2, Protein cereblon/Glycogen synthase kinase-3 beta (Rattus norvegicus); test: Protac activity at CRBN/GSK3beta in rat PC12 cells assessed as GSK3beta degradation by measuring GSK3beta protein level at […] preincubated for 2 hrs with […] ligand, pomalidomide followed by compound addition and measured after 8 hrs by Western blotting analysis (reference value: 100 %); type: cell-based; settings: PC-12, dose 8.3 µM
[4] = molecular target: T2, Protein cereblon/Glycogen synthase kinase-3 beta (Rattus norvegicus); test: Protac activity at CRBN/GSK3beta in rat PC12 cells assessed as GSK3beta degradation by measuring GSK3beta protein level at 2.8 uM after 10 hrs by Western blotting analysis (reference value: 100 %); type: cell-based; settings: PC-12
[5] = molecular target: T2, Protein cereblon/Glycogen synthase kinase-3 beta (Rattus norvegicus); test: Protac activity at CRBN/GSK3beta in rat PC12 cells assessed as GSK3beta degradation by measuring GSK3beta protein level at […] after 10 hrs by Western blotting analysis (reference value: 100 %); type: cell-based; settings: PC-12, dose 8.3 µM
[6] = molecular target: T2, Protein cereblon/Glycogen synthase kinase-3 beta (Rattus norvegicus); test: Protac activity at CRBN/GSK3beta in rat PC12 cells assessed as GSK3beta degradation by measuring GSK3beta protein level at 25 uM after 10 hrs by Western blotting analysis (reference value: 100 %); type: cell-based; settings: PC-12
[7] = molecular target: T2, Protein cereblon/Glycogen synthase kinase-3 beta (Rattus norvegicus); test: Protac activity at CRBN/GSK3beta in rat PC12 cells assessed as GSK3beta degradation by measuring GSK3beta protein level at […] preincubated for 2 hrs with proteasome inhibitor, MG132 followed by compound addition and measured after 8 hrs by Western blotting analysis (reference value: 100 %); type: cell-based; parameters: scale not given: the % may be the effect or the level left; settings: PC-12, dose 8.3 µM
[8] = molecular target: T2, Protein cereblon/Glycogen synthase kinase-3 beta (Rattus norvegicus); test: Protac activity at CRBN/GSK3beta in rat PC12 cells assessed as GSK3beta degradation by measuring GSK3beta protein level at […] preincubated for 2 hrs with GSK3beta inhibitor, G1 followed by compound addition and measured after 8 hrs by Western blotting analysis (reference value: 100 %); type: cell-based; parameters: scale not given: the % may be the effect or the level left; settings: PC-12, dose 8.3 µM
[9] = molecular target: T2, Protein cereblon/Glycogen synthase kinase-3 beta (Rattus norvegicus); test: Protac activity at CRBN/GSK3beta in rat PC12 cells assessed as GSK3beta degradation by measuring reduction in GSK3beta protein level after 10 hrs by Western blotting analysis; type: cell-based; settings: PC-12, dose 2.8-25 µM
[10] = molecular target: Cyclin-dependent kinase 9 (Homo sapiens) (UniProt P50750); test: Inhibition of CDK9 (unknown origin) at 300 nM relative to control
Sequence of Cyclin-dependent kinase 9 (Homo sapiens) (P50750 whole entry): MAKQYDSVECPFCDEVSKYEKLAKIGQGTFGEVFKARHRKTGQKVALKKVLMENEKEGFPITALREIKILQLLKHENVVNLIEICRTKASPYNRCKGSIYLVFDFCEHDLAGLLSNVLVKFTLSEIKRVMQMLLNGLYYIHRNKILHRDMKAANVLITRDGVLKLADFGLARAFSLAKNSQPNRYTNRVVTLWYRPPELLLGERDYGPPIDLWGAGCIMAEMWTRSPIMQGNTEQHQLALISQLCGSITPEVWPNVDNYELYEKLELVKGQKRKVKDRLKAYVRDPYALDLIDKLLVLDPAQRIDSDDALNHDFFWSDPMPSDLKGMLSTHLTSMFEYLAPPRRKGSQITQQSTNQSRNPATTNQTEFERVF

[11] = molecular target: Cyclin-dependent kinase 7 (Homo sapiens) (UniProt P50613); test: Inhibition of CDK7 (unknown origin) at 300 nM relative to control
Sequence of Cyclin-dependent kinase 7 (Homo sapiens) (P50613 whole entry): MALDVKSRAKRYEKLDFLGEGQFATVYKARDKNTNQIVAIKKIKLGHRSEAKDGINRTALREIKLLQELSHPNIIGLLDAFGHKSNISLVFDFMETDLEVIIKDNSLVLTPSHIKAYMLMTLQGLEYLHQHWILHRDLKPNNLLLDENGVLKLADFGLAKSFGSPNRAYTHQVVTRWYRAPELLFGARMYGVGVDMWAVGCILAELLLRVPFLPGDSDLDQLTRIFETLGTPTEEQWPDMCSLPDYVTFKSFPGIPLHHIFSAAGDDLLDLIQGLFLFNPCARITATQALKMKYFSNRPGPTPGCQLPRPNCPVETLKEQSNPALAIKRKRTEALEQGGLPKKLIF

[12] = molecular target: Cyclin-dependent kinase 4 (Homo sapiens) (UniProt P11802); test: Inhibition of CDK4 (unknown origin) at 300 nM relative to control
Sequence of Cyclin-dependent kinase 4 (Homo sapiens) (P11802 whole entry): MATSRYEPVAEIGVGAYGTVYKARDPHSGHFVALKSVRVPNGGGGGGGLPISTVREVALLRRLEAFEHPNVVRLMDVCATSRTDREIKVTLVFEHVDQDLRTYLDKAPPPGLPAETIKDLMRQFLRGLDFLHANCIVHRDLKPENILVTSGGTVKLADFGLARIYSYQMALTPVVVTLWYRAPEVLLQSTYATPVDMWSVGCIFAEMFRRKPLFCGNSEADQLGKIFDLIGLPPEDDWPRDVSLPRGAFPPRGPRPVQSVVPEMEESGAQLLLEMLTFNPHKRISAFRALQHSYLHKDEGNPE

[13] = molecular target: Cyclin-dependent kinase 1 (Homo sapiens) (UniProt P06493); test: Inhibition of CDK1 (unknown origin) at 300 nM relative to control
Sequence of Cyclin-dependent kinase 1 (Homo sapiens) (P06493 whole entry, looked up): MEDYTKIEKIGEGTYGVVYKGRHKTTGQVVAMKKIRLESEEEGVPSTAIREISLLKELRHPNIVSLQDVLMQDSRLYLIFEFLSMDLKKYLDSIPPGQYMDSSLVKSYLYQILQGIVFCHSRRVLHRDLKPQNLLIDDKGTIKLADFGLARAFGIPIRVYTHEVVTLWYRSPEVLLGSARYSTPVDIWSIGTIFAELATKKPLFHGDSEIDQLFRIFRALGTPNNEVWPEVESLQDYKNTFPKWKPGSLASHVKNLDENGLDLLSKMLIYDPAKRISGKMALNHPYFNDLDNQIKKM

[14] = molecular target: Mitogen-activated protein kinase 10 (Homo sapiens) (UniProt P53779); test: Inhibition of JNK3 (unknown origin) at 300 nM relative to control
[15] = molecular target: Mitogen-activated protein kinase 9 (Homo sapiens) (UniProt P45984); test: Inhibition of JNK2 (unknown origin) at 300 nM relative to control
Sequence of Mitogen-activated protein kinase 9 (Homo sapiens) (P45984 whole entry, looked up): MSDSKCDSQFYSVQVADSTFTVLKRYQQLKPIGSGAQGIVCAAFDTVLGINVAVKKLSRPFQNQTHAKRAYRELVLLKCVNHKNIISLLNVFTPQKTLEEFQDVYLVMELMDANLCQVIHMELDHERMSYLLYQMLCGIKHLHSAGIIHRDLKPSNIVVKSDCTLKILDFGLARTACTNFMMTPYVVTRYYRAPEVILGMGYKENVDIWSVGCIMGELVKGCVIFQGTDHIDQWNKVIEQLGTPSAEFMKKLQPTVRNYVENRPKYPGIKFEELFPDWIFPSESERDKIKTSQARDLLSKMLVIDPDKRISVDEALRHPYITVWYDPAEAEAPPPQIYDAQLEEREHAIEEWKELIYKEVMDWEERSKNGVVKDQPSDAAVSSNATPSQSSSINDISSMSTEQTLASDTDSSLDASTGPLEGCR

[16] = molecular target: Dual specificity tyrosine-phosphorylation-regulated kinase 1B (Homo sapiens) (UniProt Q9Y463); test: Inhibition of DYRK1beta (unknown origin) at 300 nM relative to control
Sequence of Dual specificity tyrosine-phosphorylation-regulated kinase 1B (Homo sapiens) (Q9Y463 whole entry, looked up): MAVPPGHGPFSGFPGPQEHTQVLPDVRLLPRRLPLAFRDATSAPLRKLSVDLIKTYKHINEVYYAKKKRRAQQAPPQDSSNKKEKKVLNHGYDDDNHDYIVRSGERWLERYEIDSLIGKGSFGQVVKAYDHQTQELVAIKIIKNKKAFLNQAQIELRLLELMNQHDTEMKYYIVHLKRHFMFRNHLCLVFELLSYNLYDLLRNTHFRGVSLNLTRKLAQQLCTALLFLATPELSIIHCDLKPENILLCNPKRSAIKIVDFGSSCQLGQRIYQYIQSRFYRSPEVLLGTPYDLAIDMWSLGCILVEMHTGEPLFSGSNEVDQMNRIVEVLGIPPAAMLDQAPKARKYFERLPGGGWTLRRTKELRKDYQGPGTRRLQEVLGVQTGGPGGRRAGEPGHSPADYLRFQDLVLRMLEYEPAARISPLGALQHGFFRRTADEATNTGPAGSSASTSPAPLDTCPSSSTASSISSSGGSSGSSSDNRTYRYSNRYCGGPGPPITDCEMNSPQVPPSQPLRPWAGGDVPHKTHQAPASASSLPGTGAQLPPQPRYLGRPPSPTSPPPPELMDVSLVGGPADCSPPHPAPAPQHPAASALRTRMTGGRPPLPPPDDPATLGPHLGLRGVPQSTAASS

[17] = molecular target: Dual specificity tyrosine-phosphorylation-regulated kinase 1A (Homo sapiens) (UniProt Q13627); test: Inhibition of DYRK1alpha (unknown origin) at 300 nM relative to control
[18] = molecular target: T3, Mitogen-activated protein kinase 13 (Homo sapiens) (UniProt O15264); test: Inhibition of p38delta (unknown origin) at 300 nM relative to control
T3 sequence (whole entry): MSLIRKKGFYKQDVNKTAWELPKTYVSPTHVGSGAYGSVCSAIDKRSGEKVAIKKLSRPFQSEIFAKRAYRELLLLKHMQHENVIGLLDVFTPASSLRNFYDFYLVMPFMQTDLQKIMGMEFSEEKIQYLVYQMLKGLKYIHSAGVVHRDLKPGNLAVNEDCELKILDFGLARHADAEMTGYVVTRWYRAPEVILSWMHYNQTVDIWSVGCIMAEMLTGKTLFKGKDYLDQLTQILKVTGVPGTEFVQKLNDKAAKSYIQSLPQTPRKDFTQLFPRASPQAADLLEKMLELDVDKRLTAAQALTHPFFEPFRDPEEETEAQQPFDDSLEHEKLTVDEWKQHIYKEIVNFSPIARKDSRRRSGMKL

[19] = molecular target: T1, Glycogen synthase kinase-3 beta; test: Inhibition of GSK3beta (unknown origin) at 300 nM relative to control
[20] = molecular target: Glycogen synthase kinase-3 alpha (Homo sapiens) (UniProt P49840); test: Inhibition of GSK3alpha (unknown origin) at 300 nM relative to control
[21] = molecular target: Mitogen-activated protein kinase 11 (Homo sapiens) (UniProt Q15759); test: Inhibition of p38beta (unknown origin) at 300 nM relative to control
Sequence of Mitogen-activated protein kinase 11 (Homo sapiens) (Q15759 whole entry): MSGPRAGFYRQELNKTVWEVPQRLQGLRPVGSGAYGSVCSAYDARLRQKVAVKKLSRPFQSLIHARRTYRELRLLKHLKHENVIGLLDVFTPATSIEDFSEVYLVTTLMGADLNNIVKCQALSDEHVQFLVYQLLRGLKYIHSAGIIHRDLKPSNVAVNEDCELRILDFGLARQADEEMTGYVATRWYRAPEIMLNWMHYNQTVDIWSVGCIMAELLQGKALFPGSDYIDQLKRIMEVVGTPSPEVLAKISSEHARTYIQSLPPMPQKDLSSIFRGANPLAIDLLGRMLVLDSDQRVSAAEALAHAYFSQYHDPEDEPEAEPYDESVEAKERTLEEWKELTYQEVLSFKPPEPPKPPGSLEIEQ

[22] = molecular target: Mitogen-activated protein kinase 14 (Homo sapiens) (UniProt Q16539); test: Inhibition of p38alpha (unknown origin) at 300 nM relative to control
[23] = molecular target: Mitogen-activated protein kinase 1 (Homo sapiens) (UniProt P28482); test: Inhibition of ERK2 (unknown origin) at 300 nM relative to control
Sequence of Mitogen-activated protein kinase 1 (Homo sapiens) (P28482 whole entry): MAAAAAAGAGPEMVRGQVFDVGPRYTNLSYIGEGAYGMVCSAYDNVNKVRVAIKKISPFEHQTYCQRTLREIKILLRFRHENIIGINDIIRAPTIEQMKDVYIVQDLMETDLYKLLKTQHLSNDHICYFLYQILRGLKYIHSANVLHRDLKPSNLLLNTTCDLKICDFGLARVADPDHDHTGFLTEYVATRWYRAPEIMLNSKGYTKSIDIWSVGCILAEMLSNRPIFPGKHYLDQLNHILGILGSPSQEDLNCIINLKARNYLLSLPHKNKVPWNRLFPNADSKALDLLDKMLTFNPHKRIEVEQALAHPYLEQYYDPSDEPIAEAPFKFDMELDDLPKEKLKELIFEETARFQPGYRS

[24] = molecular target: Mitogen-activated protein kinase 3 (Homo sapiens) (UniProt P27361); test: Inhibition of ERK1 (unknown origin) at 300 nM relative to control
Sequence of Mitogen-activated protein kinase 3 (Homo sapiens) (P27361 whole entry): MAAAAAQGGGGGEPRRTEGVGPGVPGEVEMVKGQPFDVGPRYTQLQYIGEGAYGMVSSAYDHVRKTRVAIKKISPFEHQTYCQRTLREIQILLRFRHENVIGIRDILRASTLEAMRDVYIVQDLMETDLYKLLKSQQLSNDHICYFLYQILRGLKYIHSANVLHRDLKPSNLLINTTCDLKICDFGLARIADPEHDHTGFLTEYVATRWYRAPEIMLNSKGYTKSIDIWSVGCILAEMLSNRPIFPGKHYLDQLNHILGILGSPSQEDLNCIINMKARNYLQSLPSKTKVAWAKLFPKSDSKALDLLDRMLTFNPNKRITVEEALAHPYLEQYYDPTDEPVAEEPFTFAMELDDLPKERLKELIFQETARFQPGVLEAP

BV-2 = test: Anti-neuroinflammatory activity in mouse BV2 cells assessed as reduction in LPS-induced TNFalpha production at 5 uM pretreated for 5 hrs followed by LPS challenge and measured after 24 hrs by immunofluorescence confocal microscopic analysis; type: functional, cell-based; settings: time 29.0 hrs
HT-22 = test: Neuroprotective activity against glutamate-induced cell death in mouse HT22 cells at 5 uM preincubated for 10 hrs followed by glutamate challenge and measured after 24 hrs by fluorescence inverted microscopic analysis; type: functional, cell-based
[25] = molecular target: T2, Protein cereblon/Glycogen synthase kinase-3 beta (Rattus norvegicus); test: Protac activity at CRBN/GSK3beta in rat PC12 cells assessed as GSK3beta degradation by measuring GSK3beta protein level at 20 uM after 10 hrs by Western blotting analysis (reference value: 100 %); type: cell-based; settings: PC-12

## COc1nc(-c2ccnc(NC(=O)C3CC3)c2)sc1C(=O)NCCCNC(=O)COc1cccc2c1C(=O)N(C1CCC(=O)NC1=O)C2=O (stereo not drawn)
[1]
  IC50: 874 nM

## CNC(=O)c1sc(-c2ccnc(NC(=O)C3CC3)c2)nc1OCCOCCOCCOCCOCCOc1cccc2c1C(=O)N(C1CCC(=O)NC1=O)C2=O (stereo not drawn)
[1]
  IC50: 69.3 nM
[2]
  GSK3beta protein level remaining: 95.5%

## CNC(=O)c1sc(-c2ccnc(NC(=O)C3CC3)c2)nc1OCCCC#Cc1cccc2c1CN(C1CCC(=O)NC1=O)C2=O (stereo not drawn)
[1]
  IC50: 295 nM
[2]
  GSK3beta protein level remaining: 85.1%

## CNC(=O)c1sc(-c2ccnc(NC(=O)C3CC3)c2)nc1OCCCC#Cc1ccc2c(c1)C(=O)N(C1CCC(=O)NC1=O)C2=O (stereo not drawn)
[1]
  IC50: 79.1 nM
[2]
  GSK3beta protein level remaining: 99.2%

## CNC(=O)c1sc(-c2ccnc(NC(=O)C3CC3)c2)nc1OCCCCCCCCOc1cccc2c1C(=O)N(C1CCC(=O)NC1=O)C2=O (stereo not drawn)
[1]
  IC50: 23.8 nM
[2]
  GSK3beta protein level remaining: 95.6%

## CNC(=O)c1sc(-c2ccnc(NC(=O)C3CC3)c2)nc1OCCOCCOCCOCCn1cc(COc2cccc3c2C(=O)N(C2CCC(=O)NC2=O)C3=O)nn1 (stereo not drawn)
[1]
  IC50: 79.5 nM
[2]
  GSK3beta protein level remaining: 54%

## CNC(=O)c1sc(-c2ccnc(NC(=O)C3CC3)c2)nc1OCCOCCOCCOc1cccc2c1C(=O)N(C1CCC(=O)NC1=O)C2=O (stereo not drawn)
[1]
  IC50: 105 nM
[2]
  GSK3beta protein level remaining: 92.8%

## CNC(=O)c1sc(-c2ccnc(NC(=O)C3CC3)c2)nc1OCCOCC#Cc1ccc2c(c1)C(=O)N(C1CCC(=O)NC1=O)C2=O (stereo not drawn)
[1]
  IC50: 19.7 nM
[2]
  GSK3beta protein level remaining: 68.8%

## CNC(=O)c1sc(-c2ccnc(NC(=O)C3CC3)c2)nc1OCCCCCCCCn1cc(COc2cccc3c2C(=O)N(C2CCC(=O)NC2=O)C3=O)nn1 (stereo not drawn)
[1]
  IC50: 83.1 nM
[2]
  GSK3beta protein level remaining: 25.2%
[3]
  Activity: 109%
[4]
  Activity: 55.8%
[5]
  Activity: 36.5%
[6]
  Activity: 16.7%
[7]
  Activity: 96.6%
[8]
  Activity: 102%
[9]
  Activity: Dose-dependent effect
[10]
  inhibition: 3.27%
[11]
  inhibition: 3.65%
[12]
  inhibition: 4.09%
[13]
  inhibition: 4.01%
[14]
  inhibition: 13.8%
[15]
  inhibition: 1.78%
[16]
  inhibition: 19.6%
[17]
  inhibition: 40.4%
[18]
  inhibition: 18.4%
[19]
  inhibition: 81.5%
[20]
  inhibition: 88.9%
[21]
  inhibition: 6.94%
[22]
  inhibition: 5.63%
[23]
  inhibition: 5.84%
[24]
  inhibition: 6.79%
BV-2
  Activity: Active
HT-22
  Activity: Active

## CNC(=O)c1sc(-c2ccnc(NC(=O)C3CC3)c2)nc1OCCCCCCCCCCOc1cccc2c1C(=O)N(C1CCC(=O)NC1=O)C2=O (stereo not drawn)
[1]
  IC50: 70.4 nM
[2]
  GSK3beta protein level remaining: 85.6%

## CNC(=O)c1sc(-c2ccnc(NC(=O)C3CC3)c2)nc1OCCOCCOCCn1cc(COc2cccc3c2C(=O)N(C2CCC(=O)NC2=O)C3=O)nn1 (stereo not drawn)
[1]
  IC50: 46.9 nM
[2]
  GSK3beta protein level remaining: 62.7%

## NC(=O)c1sc(-c2ccnc(NC(=O)C3CC3)c2)nc1OCCOCC#Cc1ccc2c(c1)C(=O)N(C1CCC(=O)NC1=O)C2=O (stereo not drawn)
[1]
  IC50: 27.7 nM
[2]
  GSK3beta protein level remaining: 75.3%

## COc1nc(-c2ccnc(NC(=O)C3CC3)c2)sc1C(=O)NCCCCNC(=O)COc1cccc2c1C(=O)N(C1CCC(=O)NC1=O)C2=O (stereo not drawn)
[1]
  IC50: 639 nM

## CNC(=O)c1sc(-c2ccnc(NC(=O)C3CC3)c2)nc1OCCCCCCOc1cccc2c1C(=O)N(C1CCC(=O)NC1=O)C2=O (stereo not drawn)
[1]
  IC50: 71.6 nM

## CNC(=O)c1sc(-c2ccnc(NC(=O)C3CC3)c2)nc1OCCC#Cc1cccc2c1CN(C1CCC(=O)NC1=O)C2=O (stereo not drawn)
[1]
  IC50: > 1000 nM

## CNC(=O)c1sc(-c2ccnc(NC(=O)C3CC3)c2)nc1OCCCCCCCCCCCCOc1cccc2c1C(=O)N(C1CCC(=O)NC1=O)C2=O (stereo not drawn)
[1]
  IC50: 98 nM
[2]
  GSK3beta protein level remaining: 58.1%

## NC(=O)c1sc(-c2ccnc(NC(=O)C3CC3)c2)nc1OCCC#Cc1ccc2c(c1)C(=O)N(C1CCC(=O)NC1=O)C2=O (stereo not drawn)
[1]
  IC50: > 1000 nM

## Nc1cccc2c1C(=O)N(C1CCC(=O)NC1=O)C2=O (stereo not drawn)
[2]
  GSK3beta protein level remaining: 109%

## NC(=O)c1sc(-c2ccnc(NC(=O)C3CC3)c2)nc1OCCOCC#Cc1cccc2c1CN(C1CCC(=O)NC1=O)C2=O (stereo not drawn)
[1]
  IC50: 63.8 nM
[2]
  GSK3beta protein level remaining: 86.9%

## CNC(=O)c1sc(-c2ccnc(NC(=O)C3CC3)c2)nc1OCCOCCOCCOCCOc1cccc2c1C(=O)N(C1CCC(=O)NC1=O)C2=O (stereo not drawn)
[1]
  IC50: 73.2 nM
[2]
  GSK3beta protein level remaining: 71.2%

## COc1nc(-c2ccnc(NC(=O)C3CC3)c2)sc1C(=O)NCCCCCCNC(=O)COc1cccc2c1C(=O)N(C1CCC(=O)NC1=O)C2=O (stereo not drawn)
[1]
  IC50: 243 nM

## CNC(=O)c1sc(-c2ccnc(NC(=O)C3CC3)c2)nc1OCCOCC#Cc1cccc2c1CN(C1CCC(=O)NC1=O)C2=O (stereo not drawn)
[1]
  IC50: 49.2 nM
[2]
  GSK3beta protein level remaining: 89.7%

## NC(=O)c1sc(-c2ccnc(NC(=O)C3CC3)c2)nc1O
[2]
  GSK3beta protein level remaining: 104%
[25]
  Activity: 111%
